Results from article PMC7882986, “Simultaneous blocking of the pan‐RAF and S100B pathways as a synergistic therapeutic strategy against malignant melanoma” (Journal of Cellular and Molecular Medicine, 2020).

Test system: p53 transcription activity
Experiment: p53 luciferase reporter assay in A375 cells
Format: cell-based, human
Conditions: 0.5 μM alone, 12 h
Protocol: Transient transfection: A375 cells were seeded in a culture dish overnight before transfection. p53-luciferase plasmid, and TurboFect reagent were mixed together in Dulbecco's modified eagle medium (DMEM) without FBS and the resulting solution was incubated for 20 min at 37 °C. The mixture was then added to the A375 cells in the wells. The cells were incubated for 12 h at 37 °C in a CO2 incubator before use.
Briefly, A375 cells were seed at a density of 6 × 10^5 cell in a culture dish overnight. The cells were co-transfected with p53-luciferase plasmid in serum-free DMEM medium using TurboFect Transfection Reagent. Then, the transfected cells were seeded in a 24-well plate and treated with an indicated concentration of 1 in 1% FBS medium for 6h. The transfected cells were lysed by the addition of 160 μL Passive Lysis Buffer (PLB). 50 μL of the cell lysates were transferred to a 96-well white plate followed by adding 50 μL of luciferase reporter reagent (LAR). The transcriptional activity was determined by measuring the activity of firefly luciferase in SpectraMax M5 microplate reader (Molecular Devices).

CCCS(=O)(=O)Nc1ccc(F)c(C(=O)c2c[nH]c3ncc(-c4ccc(Cl)cc4)cc23)c1F [vemurafenib, reference compound]
p53 transcription activity, single agent: negligible effect
